Reference: patent US20230123497A1, “NOVEL ANTIBACTERIAL HYDROGELS” (NewSouth Innovations Pty Limited, priority 2020, published 2023)
Values joined by “and” are separate entries in the source; they are usually repeats but may differ in a detail not shown here. Equal values may be shown once. Values belong to the compound of their own block, whether it stands above or below them.

Columns and labels:
Format in all cases: physicochemical
[1] = Hydrogel formation, vial inversion test (critical gel concentration); set-up: key: VS: viscous solution; CG: clear gel
Excerpt: (§1) The simplest method to determine whether a suitable hydrogel has formed is to use the vial inversion test. Through visual inspection, a material can be categorised as a solution, viscous solution, partial gel, or solid-like gel. A stable hydrogel needs to be able to hold its weight and/or maintain its shape during this assessment.
(§2) The critical gel concentration (CGC) is defined as the minimum mass of a short peptide required to provide a self-supporting hydrogel per unit volume in the vial inversion test (measured as % w/v).
(§3) Pre-weighed samples of short peptide 4 were prepared in aluminium-covered glass vials and Milli-Q water and 2 equivalents of NaOH (1.0 M) were added to make up concentrations of 1% w/v. The resulting suspensions were vortexed for 5 minutes to provide clear yellow solutions with pH 11.
(§4) To create a high ionic strength environment, 1 equivalent of NaCl was added and the vial was left to stand without disturbance for 3 hours at room temperature. Meanwhile, as an attempt to form a hydrogel by lowering the pH, 2 equivalents of GdL were added to a high pH solution of 4 followed by gentle mixing. These vials were inverted and allowed to stand overnight to confirm the hydrogel formation.
(§5) The formation of hydrogel 4 via the solvent switch method was conducted by dissolving short peptide 4, in an aluminium covered glass vial, with either 50% methanol, ethanol, or dimethyl sulfoxide (DMSO). Respective amounts of Mili-Q water were added to make up concentrations of 1% w/v.
(§6) In addition, gelation time was defined as the time (hours) required for 1% w/v of short peptide 4 to form a hydrogel which can be turned upside down without collapsing.
(§7) Pre-weighed samples of short peptides 10a-17a, 18, and 19 were prepared in glass vials with 10 mm internal diameter, and Milli-Q water was added to make up concentrations of 1% w/v. The resulting suspensions of short peptides 13, 18, and 19 (as ammonium or guanidinium salts) were slowly warmed until all solid had completely dissolved. GdL (1.5 to 2.0 equivalents) was added to the suspension of short peptides 10a-17a, before heat was applied. To create a high ionic strength environment, 1-5 equivalents of NaCl was added to the viscous solution of 10a-17a to make the total volume up to 1 mL, followed by gentle mixing, and the vial was left to stand without disturbance for 3 hours at room temperature. Subsequently, these vials were inverted and allowed to stand overnight to confirm hydrogel formation.

[2] = Frequency sweep test (FST), rheometer; conditions: for G′: 1% w/v
Procedure: The mechanical properties of anthranilamide-based cationic hydrogels were assessed using an Anton Paar MCR 302 rheometer with a 25 mm stainless parallel plate configuration.
(§8) Initially, 1 mL of hydrogels were prepared from short peptides 11-13 and 15-19 in glass vials at concentration of 1% w/v. These vials were warmed using a heat gun to transform the hydrogel to the solution phase. Subsequently, 560 μL of the resulting solutions were cast onto the rheometer plate. The other plate was lowered to the measuring position ([…]) and the hydrogel was allowed to stand for 3 hours for the gel to form. The FST was conducted at fixed strain of 0.1% and frequency ranging from 10 Hz to 0.01 Hz. Meanwhile, the strain sweep test (SST) was performed at a frequency of 1 Hz using 0.1% strain to 100% strain. The rheology data were shown as the average of three repeats for each data point.
(§9) The mechanical properties of hydrogels 4 (formed via addition of NaCl or GdL) before and after blue light irradiation were also assessed using an Anton Paar MCR 302 rheometer with a 25 mm stainless parallel plate configuration. Prior to the hydrogel formation, 560 μL of solution phase of short peptide 4 at 1% w/v were transferred onto a rheometer plate. Meanwhile, hydrogel 4, which had been exposed to blue light, was warmed using a heat gun, to provide its solution phase. Subsequently, 560 μL of this solution phase was cast onto the rheometer plate. The other plate was lowered to the measuring position ([…]) and the hydrogel was allowed to stand for 3 hours for the gel to form. The frequency sweep test (FST) was conducted at fixed strain of 0.1% and frequency ranging from 10 Hz to 0.01 Hz. Meanwhile, the SST was performed at a frequency of 1 Hz using 0.1% strain to 100% strain. In addition, the temperature sweep test was conducted to obtain transition glass (Tg) using fixed frequency of 1 Hz and fixed strain of 0.1% with temperature ramping from 25° C. to 90° C. The rheology data were shown as the average of three repeats for each data point.
In the FST, samples were measured over a range of oscillation frequencies (0.1-10 rad/s) at fixed strain, temperature, and oscillation amplitude. Higher frequencies simulate fast motion on a short time-scale, while low frequencies simulate slow motion on a long time-scale, or rest. All of the hydrogels made from the anthranilamide-based short cationic peptides, which passed the vial inversion test, were subjected to the FST using a rheometer to precisely assess their mechanical properties.

[3] = Hydrogel formation, vial inversion test (critical gel concentration)
Excerpt: as §1, §2, §3, §4, §5, §6, §7

[4] = Atomic force microscopy (AFM) of fibers
Procedure: Hydrogels of NO-releasing short peptide 4 (1 drop), at high pH, low pH, and after irradiation, were cast onto a mica substrate. Hydrogels of cationic short peptides 11-13 and 15-19 were prepared at their CGC, 2× below, and 4× below CGC in glass vials. Prior to gelation, one drop of the cationic short peptide solutions was cast onto a mica substrate. Using a glass slide, each droplet was carefully spread and was left to dry overnight before imaging. Imaging was performed using a Bruker Multimode 8 Atomic Force Microscope in Scanasyst Air (PeakForce Tappings) mode, which is based on tapping mode AFM. To prevent damage of soft samples, the imaging parameters were constantly optimized through the force curves that were collected. Bruker Scanasyst-Air probes were used, with a spring constant of 0.4-0.8 N·m^−1 and a tip radius of 2 nm.
To gain some insight on the mechanism of antibacterial action, the released solutions from hydrogel made of primary ammonium 11 were directly cast onto a mica substrate. […] After gently spreading using a glass slide and left to dry overnight, these samples were imaged using a similar manner as describe above.

[5] = Strain sweep test (SST), linear viscoelastic region
Procedure: as §8, §9
To observe the structural decay in anthranilamide-based cationic hydrogels, the SST was performed by imposing a non-linear strain. SST provides information about the viscoelastic properties of a hydrogel through determination of its linear viscoelastic region (LVER). […] Here, the LVER reported for each hydrogel represents the deviation of storage modulus (G′) from linearity, known as yield point (γy). Yield points have been reported to reflect a point where the rigidity of a hydrogel starts to weaken.

[6] = hydrogels 11-13 at 1% w/v, FST fixed strain 0.1%

Remarks (gel state) ([1]; trigger NaOH): VS
Remarks (gel state) ([1]; trigger NaOH + GdL): CG
Remarks (gel state) ([1]; trigger NaOH + NaCl): CG
G′/G″ ([2]; hydrogel 4 at pH 5.5-6): 17
G″ ([2]; hydrogel 4 at pH 5.5-6): 0.6 kPa
G′ ([2]; hydrogel 4 at pH 5.5-6 (low pH, GdL), before irradiation): 10.2 kPa
G′/G″ ([2]; hydrogel 4 at pH 11): 12
G″ ([2]; hydrogel 4 at pH 11): 1.1 kPa
G′ ([2]; hydrogel 4 at pH 11 (high pH, NaCl)): 13.2 kPa
G′ after irradiation ([2]; hydrogel 4 irradiated (λ=440-450 nm) for 2 hours, after NO release): 4.9 kPa
Time (gelation time) ([3]; solvent switch, DMSO 50 % v/v, 1% w/v): Immed.
Time (gelation time) ([3]; solvent switch, EtOH 5 % v/v): Immed.
Time (gelation time) ([3]; solvent switch, EtOH 50 % v/v, 1% w/v): Immed.
Time (gelation time) ([3]; solvent switch, MeOH 50 % v/v, 1% w/v): Immed.
CGC (critical gel concentration) ([3]; solvent switch, co-solvent DMSO 50 % v/v): 0.4 % w/v
CGC (critical gel concentration) ([3]; solvent switch, co-solvent EtOH 50 % v/v): 0.4 % w/v
CGC (critical gel concentration) ([3]; solvent switch, co-solvent MeOH 50 % v/v): 0.4 % w/v
Time (self-assembly/gelation) ([3]; trigger NaOH): 48 h
pH ([3]; trigger NaOH): 11
Time (self-assembly/gelation) ([3]; trigger NaOH + GdL): 1 h
pH ([3]; trigger NaOH + GdL): 5.5 and 5.2
CGC (critical gel concentration) ([3]; trigger NaOH + GdL (pH switch)): 0.2 % w/v
CGC (critical gel concentration) ([3]; trigger NaOH + NaCl): 0.2 % w/v
Time (self-assembly/gelation) ([3]; trigger NaOH + NaCl): 3 h
pH ([3]; trigger NaOH + NaCl): 11
diameter of larger (bundled) fibers ([4]; hydrogel 4, before irradiation): 104±4 nm
fiber diameter ([4]; hydrogel 4 formed at high pH): 40±3 nm
fiber diameter ([4]; hydrogel 4 formed at low pH): 43±5 nm
fiber bundle diameter after irradiation ([4]; hydrogel 4 irradiated for 2 hours (blue light)): 68±6 nm
% strain (LVER) ([5]; hydrogel 4 at pH 5.5-6): 1.4%
% strain (LVER) ([5]; hydrogel 4 at pH 11): 1.2%
Structure (SMILES): O=C(Nc1ccccc1C(=O)N[C@@H](Cc1ccccc1)C(=O)N[C@@H](Cc1ccccc1)C(=O)O)c1ccc([N+](=O)[O-])c(C(F)(F)F)c1 [Compound 4, (2-(4-Nitro-3-(trifluoromethyl)benzamido)benzoyl)-L-phenylalanyl-L-phenylalanine]

Remarks (gel state) ([1]; cationic peptides 10-14, vial inversion test): CG
G′/G″ ratio ([2]; hydrogels 11-13 at 1% w/v): 11.9
G′ (modulus storage) [2, 6]: 0.83 kPa
G″ (modulus loss) [2, 6]: 0.07 kPa
CGC ([3]; cationic peptides 10-14, triggers GdL, heat and NaCl (13: heat and NaCl)): 0.1 % w/v
pH ([3]; hydrogels of cationic peptides 10-14): 5.5
fiber bundle diameter ([4]; hydrogel after addition of salt, 4× below CGC): 115±5 nm
diameter of fibers in the released solution ([4]; solution released from hydrogel 11, below CGC): 47±4.9 nm
fiber diameter ([4]; viscous solution without salt, 0.05% w/v): 74±6 nm
LVER (linear viscoelastic region) ([5]; hydrogels at 1% w/v, SST at 1 Hz, 0.1% to 100% strain): 0.98 ± 0.05%
Structure (SMILES): NCCCNC(=O)[C@H](Cc1ccccc1)NC(=O)c1ccccc1NC(=O)c1ccc2ccccc2c1 [Compound 11]
